PubChem BioAssay AID1963830 (Molecular Pharmacology Branch, DTP, NCI, 2024)
Where “and” joins values, the source holds several entries; their conditions need not be identical. Identical values can stand only once.

System: 922993-354-T-J3-PDC complex spheroid viability
Assay: Anticancer human tumor 922993-354-T-J3-PDC patient-derived endometrial carcinoma cell line growth inhibition [POLQ]
Conditions: for viability, T/C: stronger effect = lower value
Description: Multicellular complex tumor spheroid response to Polymerase (POL) inhibitors (novobiocin, ART-558, RP6685) in combination with a variety of drugs and investigational agents in selected tumor cell lines
The POL inhibitors (novobiocin, ART-558, and RP6685) were evaluated both individually and in combination with standard of care and investigational anticancer small molecules within a complex spheroid model of solid tumors. . Complex spheroids include a stromal component modeled by human endothelial cells (HUVEC) and fibroblasts modeled by human mesenchymal stem cells (MSCs). The concentration ranges selected for each drug and investigational agent were based upon clinically achievable concentrations if the clinical Cmax of the agent was known.
Compounds. The drugs and investigational agents: novobiocin (NSC847541), ART-558 (NSC835418), RP-6685 (NSC848927), peposertib (NSC802822), ceralasertib (NSC780249), elimusertib (NSC800525), camonsertib (NSC841442), AZD-1390 (NSC803789), olaparib (NSC753686), talazoparib (NSC767125), rucaparib (NSC756644), sotorasib (NSC818433), MRTX-1133 (NSC836407), SN-38 (NSC673596), topotecan (NSC609699), epotoside (NSC141540), doxorubicin (NSC123127), gemcitabine (NSC613327), 5-fluorouracil (NSC19893), paclitaxel (NSC125973), vemurafenib (NSC761431), MSA-2 (NSC828583), SN-011 (NSC837082), adavosertib (NSC754352), prexasertib (NSC758257), carboplatin (NSC241240) and oxaliplatin (NSC266046), were obtained from the National Cancer Institute (NCI) Developmental Therapeutics Program Chemical Repository (21). The FDA-approved anticancer drug set is available from the Developmental Therapeutics Program at https://dtp.cancer.gov/organization/dscb/obtaining/. […] The stock solutions were prepared in dimethyl sulfoxide (DMSO, Sigma-Aldrich, St. Louis, MO, cat. D2650), except for the platinum compounds which were prepared in saline (Quality Biological, Gaithersburg, MD, cat. 114-055-101), at 800-fold the tested concentration and stored at -70 degrees C prior to their use. All drugs and investigational agents were tested over a range starting from a high concentration at or near the clinical Cmax and decreasing in half-log increments. If the clinical Cmax for an agent had not been determined, the highest concentration tested was 10 microM, except for SN-38, which was tested at a high concentration of 1 microM.
Cell Culture. All cells were maintained in an incubator at 37 degrees C and 5% CO2 with 95% humidity. The PDC lines were cultured according to standard operating procedures established by the NCI PDMR (https://pdmr.cancer.gov). Table 3 of the manuscript, lists the cell lines along with the number of the three cell types plated to form the mct-spheroids and media for tumor cell growth. After thawing, all PDC lines, except 997537-175-T-J1-PDC and 415267-285-R-J2-PDC, were cultured in Matrigel-coated flasks prepared with a working solution of 1X Ham's F-12 nutrient mix, without supplementation (Thermo Fisher Scientific, cat. 11765054), 100 U/mL penicillin-streptomycin (Thermo Fisher Scientific, cat. 15140122), and 2.5% Matrigel (Corning Inc., Corning, NY, cat. 354248) for the first three passages. The two PDC lines 997537-175-T-J1-PDC and 415267-285-R-J2-PDC were cultured on uncoated flasks. The 857933-349-R-J2-PDC line was cultured in 6C/Colon 1B media containing advanced DMEM/F-12 (Thermo Fisher Scientific, cat. 12634028), 10 mM HEPES (Thermo Fisher Scientific, cat. 15630080), 1X GlutaMAX supplement (Thermo Fisher Scientific, cat. 35050061), 0.1 mg/mL primocin (InvivoGen, San Diego, CA, cat. ant-pm-2), 10% defined fetal bovine serum, heat inactivated (HyClone Laboratories Inc., Logan, UT, cat. SH30070.03HI), 50% L-WRN conditioned media (ATCC, cat. CRL-3276), 1.25 mM N-Acetyl-L-cysteine (Sigma-Aldrich, cat. A9165), 10 mM nicotinamide (Sigma-Aldrich, cat. N0636), 1X B-27 supplement (Thermo Fisher Scientific, cat. 17504044), 1X N-2 supplement (Thermo Fisher Scientific, cat. […]

[1] = curve of first compound, second compound 0.0316 µM
[2] = curve of first compound, second compound 0.1 µM
[3] = curve of first compound, second compound 0.316 µM
[4] = curve of first compound, second compound 1 µM
[5] = curve of first compound, second compound 3.16 µM
[6] = curve of first compound, second compound 10 µM
[7] = second compound 0.0316 µM, first compound 0.0316 µM
[8] = second compound 0.0316 µM, first compound 0.1 µM
[9] = second compound 0.0316 µM, first compound 0.316 µM
[10] = second compound 0.0316 µM, first compound 1 µM
[11] = second compound 0.0316 µM, first compound 3.16 µM
[12] = second compound 0.0316 µM, first compound 10 µM
[13] = second compound 0.1 µM, first compound 0.0316 µM
[14] = second compound 0.1 µM, first compound 0.1 µM
[15] = second compound 0.1 µM, first compound 0.316 µM
[16] = second compound 0.1 µM, first compound 1 µM
[17] = second compound 0.1 µM, first compound 3.16 µM
[18] = second compound 0.1 µM, first compound 10 µM
[19] = second compound 0.316 µM, first compound 0.0316 µM
[20] = second compound 0.316 µM, first compound 0.1 µM
[21] = second compound 0.316 µM, first compound 0.316 µM
[22] = second compound 0.316 µM, first compound 1 µM
[23] = second compound 0.316 µM, first compound 3.16 µM
[24] = second compound 0.316 µM, first compound 10 µM
[25] = second compound 1 µM, first compound 0.0316 µM
[26] = second compound 1 µM, first compound 0.1 µM
[27] = second compound 1 µM, first compound 0.316 µM
[28] = second compound 1 µM, first compound 1 µM
[29] = second compound 1 µM, first compound 3.16 µM
[30] = second compound 1 µM, first compound 10 µM
[31] = second compound 3.16 µM, first compound 0.0316 µM
[32] = second compound 3.16 µM, first compound 0.1 µM
[33] = second compound 3.16 µM, first compound 0.316 µM
[34] = second compound 3.16 µM, first compound 1 µM
[35] = second compound 3.16 µM, first compound 3.16 µM
[36] = second compound 3.16 µM, first compound 10 µM
[37] = second compound 10 µM, first compound 0.0316 µM
[38] = second compound 10 µM, first compound 0.1 µM
[39] = second compound 10 µM, first compound 0.316 µM
[40] = second compound 10 µM, first compound 1 µM
[41] = second compound 10 µM, first compound 3.16 µM
[42] = second compound 10 µM, first compound 10 µM
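Note: spheroids exposed to the agents for one week.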
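Throughout, for viability, T/C: 100% = DMSO vehicle control wells.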

COc1cc(C2c3cc4c(cc3C(OC3OC5COC(C)OC5C(O)C3O)C3COC(=O)C23)OCO4)cc(OC)c1O (stereo unspecified) + Cc1cccc(N(C)C(=O)C2C(O)CCN2c2nc(C)cc(C(F)(F)F)c2C#N)c1
IC50 [1]: 8.07 µM | IC50 [2]: 6.05 µM | IC50 [3]: 8.24 µM | IC50 [4]: 8.49 µM | IC50 [5]: 6.33 µM | IC50 [6]: 1.72 µM | viability, T/C [7]: 101% | viability, T/C [8]: 90% | viability, T/C [9]: 91.2% | viability, T/C [10]: 93.2% | viability, T/C [11]: 89.8% | viability, T/C [12]: 40.9% | viability, T/C [13]: 101% | viability, T/C [14]: 98.9% | viability, T/C [15]: 95.9% | viability, T/C [16]: 96.3% | viability, T/C [17]: 68.9% | viability, T/C [18]: 35.3% | viability, T/C [19]: 112% | viability, T/C [20]: 102% | viability, T/C [21]: 99.5% | viability, T/C [22]: 93.4% | viability, T/C [23]: 80.8% | viability, T/C [24]: 43.3% | viability, T/C [25]: 92.2% | viability, T/C [26]: 98.8% | viability, T/C [27]: 96.3% | viability, T/C [28]: 88.5% | viability, T/C [29]: 76.5% | viability, T/C [30]: 45.6% | viability, T/C [31]: 102% | viability, T/C [32]: 95.8% | viability, T/C [33]: 89.9% | viability, T/C [34]: 86% | viability, T/C [35]: 74.9% | viability, T/C [36]: 34.8% | viability, T/C [37]: 100% | viability, T/C [38]: 79.9% | viability, T/C [39]: 92.1% | viability, T/C [40]: 65.6% | viability, T/C [41]: 32.1% | viability, T/C [42]: 21.6%

CNCc1ccc(-c2[nH]c3cc(F)cc4c3c2CCNC4=O)cc1 + Cc1cccc(N(C)C(=O)C2C(O)CCN2c2nc(C)cc(C(F)(F)F)c2C#N)c1
IC50 [1]: > 10 µM | IC50 [2]: > 10 µM | IC50 [3]: > 10 µM | IC50 [4]: > 10 µM | IC50 [5]: > 10 µM | IC50 [6]: 8.53 µM | viability, T/C [7]: 103% | viability, T/C [8]: 101% | viability, T/C [9]: 104% | viability, T/C [10]: 99.5% | viability, T/C [11]: 89.7% | viability, T/C [12]: 82.9% | viability, T/C [13]: 105% | viability, T/C [14]: 101% | viability, T/C [15]: 100% | viability, T/C [16]: 107% | viability, T/C [17]: 89.5% | viability, T/C [18]: 90% | viability, T/C [19]: 110% | viability, T/C [20]: 105% | viability, T/C [21]: 96.3% | viability, T/C [22]: 97.4% | viability, T/C [23]: 92.3% | viability, T/C [24]: 86.7% | viability, T/C [25]: 110% | viability, T/C [26]: 100% | viability, T/C [27]: 108% | viability, T/C [28]: 90.8% | viability, T/C [29]: 94.6% | viability, T/C [30]: 90.6% | viability, T/C [31]: 105% | viability, T/C [32]: 104% | viability, T/C [33]: 97% | viability, T/C [34]: 90.8% | viability, T/C [35]: 97.7% | viability, T/C [36]: 82.8% | viability, T/C [37]: 105% | viability, T/C [38]: 101% | viability, T/C [39]: 106% | viability, T/C [40]: 87.8% | viability, T/C [41]: 84.7% | viability, T/C [42]: 44.1%

COc1cccc(OCCCN)c1-c1cc(Nc2cnc(C#N)cn2)n[nH]1
viability, T/C (compound 0.00316 µM): 95.3% and 103% (2×) | viability, T/C (compound 0.01 µM): 89.9% and 104% and 99.4% | viability, T/C (compound 0.0316 µM): 72% and 101% and 96.2% | viability, T/C (compound 0.1 µM): 80.4% and 102% (2×) | viability, T/C (compound 0.316 µM): 16.6% and 92.8% and 90.4% | viability, T/C (compound 1 µM): 12.3% and 21.8% and 21.6% | IC50 (curve of compound): 0.173 µM and 0.633 µM and 0.623 µM
